This note sets out measurements from US10975077B2 (Novira Therapeutics, Inc., priority 2016, dated 2021).

In one assay the test system is HBV (encapsidated HBV DNA, HepG2.2.15 cells). Nature of the assay: HBV replication inhibition assay, BDNA assay in HepG2.2.15 cells. The class given is cell-based. As to conditions: Activity in BDNA-assay. Here is the method: HBV replication inhibition by the disclosed compounds were determined in cells infected or transfected with HBV, or cells with stably integrated HBV, such as HepG2.2.15 cells (Sells et al. 1987). In this example, HepG2.2.15 cells were maintained in cell culture medium containing 10% fetal bovine serum (FBS), Geneticin, L-glutamine, penicillin and streptomycin. HepG2.2.15 cells were seeded in 96-well plates at a density of 40,000 cells/well and were treated with serially diluted compounds at a final DMSO concentration of 0.5% either alone or in combination by adding drugs in a checker box format. Cells were incubated with compounds for three days, after which medium was removed and fresh medium containing compounds was added to cells and incubated for another three days. At day 6, supernatant was removed and treated with DNase at 37° C. for 60 minutes, followed by enzyme inactivation at 75° C. for 15 minutes. Encapsidated HBV DNA was released from the virions and covalently linked HBV polymerase by incubating in lysis buffer (Affymetrix QS0010) containing 2.5 μg proteinase K at 50° C. for 40 minutes. HBV DNA was denatured by addition of 0.2 M NaOH and detected using a branched DNA (BDNA) QuantiGene assay kit according to manufacturer recommendation (Affymetrix). HBV DNA levels were also quantified using qPCR, based on amplification of encapsidated HBV DNA extraction with QuickExtraction Solution (Epicentre Biotechnologies) and amplification of HBV DNA using HBV specific PCR probes that can hybridize to HBV DNA and a fluorescently labeled probe for quantitation. In addition, cell viability of HepG2.2.15 cells incubated with test compounds alone or in combination was determined by using CellTitre-Glo reagent according to the manufacturer protocol (Promega). The mean background signal from wells containing only culture medium was subtracted from all other samples, and percent inhibition at each compound concentration was calculated by normalizing to signals from HepG2.2.15 cells treated with 0.5% DMSO using equation E1. % inhibition=(DMSOave−Xi)/DMSOave×100% E1: where DMSOave is the mean signal calculated from the wells that were treated with DMSO control (0% inhibition control) and Xi is the signal measured from the individual wells. EC50 values, effective concentrations that achieved 50% inhibitory effect, were determined by non-linear fitting using Graphpad Prism software (San Diego, Calif.) and equation E2: Y=Y min+(Y max −Y min)/(1+10(Log EC50−X)×HillSlope) E2: […]
where Y represents percent inhibition values and X represents the logarithm of compound concentrations.
Selected disclosed compounds were assayed in the HBV replication assay (BDNA assay), as described above and a representative group of these active compounds is shown in Table 6.
Broadly, the EC50 is the concentration needed to bring the measured effect to its halfway point. Regarding `C[C@@H]1Cc2nn3c(c2CN1C(=O)Nc1ccc(F)c(Br)c1)C(=O)N(C)CC(CO)C3` (single isomer, unassigned) [Compound 086_D2, (3R,8R*)—N-(3-bromo-4-fluorophenyl)-8-(hydroxymethyl)-3,10-dimethyl-11-oxo-1,3,4,7,8,9,10,11-octahydro-2H-pyrido[4′,3′:3,4]pyrazolo[1,5-a][1,4]diazepine-2-carboxamide], the EC50 lay within 1 to 100 nM. The same measure, in the same setting: in the case of `C[C@@H]1Cc2nn3c(c2CN1C(=O)Nc1ccc(F)c(C#N)c1)C(=O)N(C)CC(CO)C3` (single isomer, unassigned) [Compound 087_D2, (3R,8R*)—N-(3-cyano-4-fluorophenyl)-8-(hydroxymethyl)-3,10-dimethyl-11-oxo-1,3,4,7,8,9,10,11-octahydro-2H-pyrido[4′,3′:3,4]pyrazolo[1,5-a][1,4]diazepine-2-carboxamide] it was 1 to 100 nM; in that of `C[C@@H]1Cc2nn3c(c2CN1C(=O)Nc1ccc(F)c(C#N)c1F)C(=O)N(C)CC(CO)C3` (single isomer, unassigned) [Compound 088_D2, (3R,8R*)—N-(3-cyano-2,4-difluorophenyl)-8-(hydroxymethyl)-3,10-dimethyl-11-oxo-1,3,4,7,8,9,10,11-octahydro-2H-pyrido[4′,3′:3,4]pyrazolo[1,5-a][1,4]diazepine-2-carboxamide], 1 to 100 nM. The same measure, in the same setting: the result for `C[C@@H]1Cc2nn3c(c2CN1C(=O)Nc1ccc(F)c(Cl)c1F)C(=O)N(C)CC(CO)C3` (single isomer, unassigned) [Compound 089_D2, (3R,8R*)—N-(3-chloro-2,4-difluorophenyl)-8-(hydroxymethyl)-3,10-dimethyl-11-oxo-1,3,4,7,8,9,10,11-octahydro-2H-pyrido[4′,3′:3,4]pyrazolo[1,5-a][1,4]diazepine-2-carboxamide] reads 1 to 100 nM; that for `C[C@@H]1Cc2nn3c(c2CN1C(=O)Nc1cc(Cl)c(F)cc1F)C(=O)N(C)CC(CO)C3` (single isomer, unassigned) [Compound 090_D2, (3R,8R*)—N-(5-chloro-2,4-difluorophenyl)-8-(hydroxymethyl)-3,10-dimethyl-11-oxo-1,3,4,7,8,9,10,11-octahydro-2H-pyrido[4′,3′:3,4]pyrazolo[1,5-a][1,4]diazepine-2-carboxamide], 1 to 100 nM; that for `C[C@@H]1Cc2nn3c(c2CN1C(=O)Nc1ccc(F)c(Cl)c1)C(=O)N(CC(F)F)CC(CO)C3` (single isomer, unassigned) [Compound 092_D2, (3R,8 S*)—N-(3-chloro-4-fluorophenyl)-10-(2,2-difluoroethyl)-8-(hydroxymethyl)-3-methyl-11-oxo-1,3,4,7,8,9,10,11-octahydro-2H-pyrido[4′,3′:3,4]pyrazolo[1,5-a][1,4]diazepine-2-carboxamide], 1 to 100 nM. As to `CCC(O)C1CN(C)C(=O)c2c3c(nn2C1)CCN(C(=O)Nc1cc(Cl)c(F)cc1F)C3` (single isomer, unassigned) [Compound 096_E3, (S*)—N-(5-chloro-2,4-difluorophenyl)-8-((S*)-1-hydroxypropyl)-10-methyl-11-oxo-1,3,4,7,8,9,10,11-octahydro-2H-pyrido[4′,3′:3,4]pyrazolo[1,5-a][1,4]diazepine-2-carboxamide], the EC50 is 100 to 500 nM. In the case of `CCC(O)C1CN(C)C(=O)c2c3c(nn2C1)CCN(C(=O)Nc1ccc(F)c(C#N)c1)C3` (single isomer, unassigned) [Compound 097_E1, (R*)—N-(3-cyano-4-fluorophenyl)-8-((S*)-1-hydroxypropyl)-10-methyl-11-oxo-1,3,4,7,8,9,10,11-octahydro-2H-pyrido[4′,3′:3,4]pyrazolo[1,5-a][1,4]diazepine-2-carboxamide], the EC50 was in the range of 1 to 100 nM.

`CCC(O)C1CN(C)C(=O)c2c3c(nn2C1)CCN(C(=O)Nc1ccc(F)c(C#N)c1)C3` (single isomer, unassigned) [Compound 097_E2, (S*)—N-(3-cyano-4-fluorophenyl)-8-((R*)-1-hydroxypropyl)-10-methyl-11-oxo-1,3,4,7,8,9,10,11-octahydro-2H-pyrido[4′,3′: 3,4]pyrazolo[1,5-a][1,4]diazepine-2-carboxamide]: the EC50 was 100 to 500 nM. On the same count and under the same terms, in the case of `CCC(O)C1CN(C)C(=O)c2c3c(nn2C1)CCN(C(=O)Nc1ccc(F)c(C#N)c1)C3` (single isomer, unassigned) [Compound 097_E3, (S*)—N-(3-cyano-4-fluorophenyl)-8-((S*)-1-hydroxypropyl)-10-methyl-11-oxo-1,3,4,7,8,9,10,11-octahydro-2H-pyrido[4′,3′: 3,4]pyrazolo[1,5-a][1,4]diazepine-2-carboxamide] it was 100 to 500 nM; in that of `CCC(O)C1CN(C)C(=O)c2c3c(nn2C1)CCN(C(=O)Nc1ccc(F)c(C#N)c1)C3` (single isomer, unassigned) [Compound 097_E4, (R*)—N-(3-cyano-4-fluorophenyl)-8-((R*)-1-hydroxypropyl)-10-methyl-11-oxo-1,3,4,7,8,9,10,11-octahydro-2H-pyrido[4′,3′: 3,4]pyrazolo[1,5-a][1,4]diazepine-2-carboxamide], 1 to 100 nM.

Still in this assay, the particulars now being: Hepatitis B virus, HepG2.2.15, Activity in BDNA-assay.
In the case of `C[C@@H]1Cc2nn3c(c2CN1C(=O)Nc1ccc(F)c(C#N)c1)C(=O)N(C)CC(CO)C3` (single isomer, unassigned) [Compound 087_D1, (3R,8S*)—N-(3-cyano-4-fluorophenyl)-8-(hydroxymethyl)-3,10-dimethyl-11-oxo-1,3,4,7,8,9,10,11-octahydro-2H-pyrido[4′,3′:3,4]pyrazolo[1,5-a][1,4]diazepine-2-carboxamide], the EC50 is 1 to 100 nM. Regarding `C[C@@H]1Cc2nn3c(c2CN1C(=O)Nc1ccc(F)c(C#N)c1F)C(=O)N(C)CC(CO)C3` (single isomer, unassigned) [Compound 088_D1, (3R,8S*)—N-(3-cyano-2,4-difluorophenyl)-8-(hydroxymethyl)-3,10-dimethyl-11-oxo-1,3,4,7,8,9,10,11-octahydro-2H-pyrido[4′,3′:3,4]pyrazolo[1,5-a][1,4]diazepine-2-carboxamide], the EC50 was in the range of 1 to 100 nM. Still for that read-out and setting: in the case of `C[C@@H]1Cc2nn3c(c2CN1C(=O)Nc1ccc(F)c(Cl)c1F)C(=O)N(C)CC(CO)C3` (single isomer, unassigned) [Compound 089_D1, (3R,8S*)—N-(3-chloro-2,4-difluorophenyl)-8-(hydroxymethyl)-3,10-dimethyl-11-oxo-1,3,4,7,8,9,10,11-octahydro-2H-pyrido[4′,3′:3,4]pyrazolo[1,5-a][1,4]diazepine-2-carboxamide] it was 1 to 100 nM; in that of `C[C@@H]1Cc2nn3c(c2CN1C(=O)Nc1cc(Cl)c(F)cc1F)C(=O)N(C)CC(CO)C3` (single isomer, unassigned) [Compound 090_D1, (3R,8S*)—N-(5-chloro-2,4-difluorophenyl)-8-(hydroxymethyl)-3,10-dimethyl-11-oxo-1,3,4,7,8,9,10,11-octahydro-2H-pyrido[4′,3′:3,4]pyrazolo[1,5-a][1,4]diazepine-2-carboxamide], 1 to 100 nM; in that of `C[C@@H]1Cc2nn3c(c2CN1C(=O)Nc1ccc(F)c(Cl)c1)C(=O)N(CC(F)F)CC(CO)C3` (single isomer, unassigned) [Compound 092_D1, (3R,8R*)—N-(3-chloro-4-fluorophenyl)-10-(2,2-difluoroethyl)-8-(hydroxymethyl)-3-methyl-11-oxo-1,3,4,7,8,9,10,11-octahydro-2H-pyrido[4′,3′:3,4]pyrazolo[1,5-a][1,4]diazepine-2-carboxamide], 1 to 100 nM. Still for that read-out and setting: the result for `CC[C@H](O)[C@@H]1CN(C)C(=O)c2c3c(nn2C1)CCN(C(=O)Nc1cc(Cl)c(F)cc1F)C3` (single isomer, unassigned) [Compound 096_E1, (R*)—N-(5-chloro-2,4-difluorophenyl)-8-((S*)-1-hydroxypropyl)-10-methyl-11-oxo-1,3,4,7,8,9,10,11-octahydro-2H-pyrido[4′,3′:3,4]pyrazolo[1,5-a][1,4]diazepine-2-carboxamide] reads 1 to 100 nM. On the same count and under the same terms, the result for `CCC(O)C1CN(C)C(=O)c2c3c(nn2C1)CCN(C(=O)Nc1cc(Cl)c(F)cc1F)C3` (single isomer, unassigned) [Compound 096_E2, (S*)—N-(5-chloro-2,4-difluorophenyl)-8-((R*)-1-hydroxypropyl)-10-methyl-11-oxo-1,3,4,7,8,9,10,11-octahydro-2H-pyrido[4′,3′:3,4]pyrazolo[1,5-a][1,4]diazepine-2-carboxamide] reads 100 to 500 nM.
